From ChEMBL document CHEMBL4184253, “Design, synthesis, and structure-activity relationships of new benzofuro[3,2-b]pyridin-7-ols as DNA topoisomerase II inhibitors” (Bioorg Med Chem Lett, 2018) come the findings set out here.

Where a name gives a salt, the structure may show the parent alone. Activity calls are given as the source filed them. The calls are words filed in the database; no cut-off is given here.

In one experiment the test system is T47D. The experiment is described as follows: Antiproliferative activity against human T47D cells incubated for 72 hrs by CCK8 assay. Format: functional, cell-based. In general terms: Tetrazolium dyes change colour on reduction, which living cells bring about.
A further experiment deals with HeLa. The experiment can be described thus: Antiproliferative activity against human HeLa cells incubated for 72 hrs by CCK8 assay. Format: functional, cell-based.
In experiment [1] the target is T1, DNA topoisomerase 1 (Homo sapiens) (UniProt P11387).
T1 sequence (whole entry): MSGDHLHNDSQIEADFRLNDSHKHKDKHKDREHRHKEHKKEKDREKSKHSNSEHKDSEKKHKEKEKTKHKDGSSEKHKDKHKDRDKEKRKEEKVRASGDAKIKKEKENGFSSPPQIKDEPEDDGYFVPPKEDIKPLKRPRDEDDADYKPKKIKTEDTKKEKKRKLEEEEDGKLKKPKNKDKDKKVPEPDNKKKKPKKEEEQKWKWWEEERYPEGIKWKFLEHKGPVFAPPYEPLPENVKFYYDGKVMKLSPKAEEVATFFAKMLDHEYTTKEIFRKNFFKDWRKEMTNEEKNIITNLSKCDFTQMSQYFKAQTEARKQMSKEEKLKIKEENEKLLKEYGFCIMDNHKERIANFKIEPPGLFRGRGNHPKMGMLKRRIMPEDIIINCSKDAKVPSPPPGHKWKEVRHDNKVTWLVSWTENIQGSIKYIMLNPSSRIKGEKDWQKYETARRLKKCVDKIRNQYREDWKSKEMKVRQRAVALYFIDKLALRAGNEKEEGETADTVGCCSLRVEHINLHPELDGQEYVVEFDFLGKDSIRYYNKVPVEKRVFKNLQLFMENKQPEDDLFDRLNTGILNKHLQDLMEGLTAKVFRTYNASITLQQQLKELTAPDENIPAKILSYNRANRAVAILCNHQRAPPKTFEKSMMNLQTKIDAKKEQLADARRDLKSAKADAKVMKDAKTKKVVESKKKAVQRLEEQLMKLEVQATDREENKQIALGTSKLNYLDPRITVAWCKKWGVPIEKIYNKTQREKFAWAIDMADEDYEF
The experiment is described as follows: Inhibition of human recombinant topoisomerase-1 assessed as inhibition of relaxation of supercoiled pBR322 plasmid DNA at 20 uM measured after 1 hr by ethidium bromide staining based agarose gel electrophoresis relative to control.

The target in experiment [2] is DNA topoisomerase 2-alpha (Homo sapiens) (UniProt P11388). The experiment is described as follows: Inhibition of human recombinant topoisomerase-2alpha assessed as inhibition of relaxation of supercoiled pBR322 plasmid DNA at 100 uM measured after 1 hr by ethidium bromide staining based agarose gel electrophoresis relative to control.
Chain of DNA topoisomerase 2-alpha (Homo sapiens) (P11388 whole entry): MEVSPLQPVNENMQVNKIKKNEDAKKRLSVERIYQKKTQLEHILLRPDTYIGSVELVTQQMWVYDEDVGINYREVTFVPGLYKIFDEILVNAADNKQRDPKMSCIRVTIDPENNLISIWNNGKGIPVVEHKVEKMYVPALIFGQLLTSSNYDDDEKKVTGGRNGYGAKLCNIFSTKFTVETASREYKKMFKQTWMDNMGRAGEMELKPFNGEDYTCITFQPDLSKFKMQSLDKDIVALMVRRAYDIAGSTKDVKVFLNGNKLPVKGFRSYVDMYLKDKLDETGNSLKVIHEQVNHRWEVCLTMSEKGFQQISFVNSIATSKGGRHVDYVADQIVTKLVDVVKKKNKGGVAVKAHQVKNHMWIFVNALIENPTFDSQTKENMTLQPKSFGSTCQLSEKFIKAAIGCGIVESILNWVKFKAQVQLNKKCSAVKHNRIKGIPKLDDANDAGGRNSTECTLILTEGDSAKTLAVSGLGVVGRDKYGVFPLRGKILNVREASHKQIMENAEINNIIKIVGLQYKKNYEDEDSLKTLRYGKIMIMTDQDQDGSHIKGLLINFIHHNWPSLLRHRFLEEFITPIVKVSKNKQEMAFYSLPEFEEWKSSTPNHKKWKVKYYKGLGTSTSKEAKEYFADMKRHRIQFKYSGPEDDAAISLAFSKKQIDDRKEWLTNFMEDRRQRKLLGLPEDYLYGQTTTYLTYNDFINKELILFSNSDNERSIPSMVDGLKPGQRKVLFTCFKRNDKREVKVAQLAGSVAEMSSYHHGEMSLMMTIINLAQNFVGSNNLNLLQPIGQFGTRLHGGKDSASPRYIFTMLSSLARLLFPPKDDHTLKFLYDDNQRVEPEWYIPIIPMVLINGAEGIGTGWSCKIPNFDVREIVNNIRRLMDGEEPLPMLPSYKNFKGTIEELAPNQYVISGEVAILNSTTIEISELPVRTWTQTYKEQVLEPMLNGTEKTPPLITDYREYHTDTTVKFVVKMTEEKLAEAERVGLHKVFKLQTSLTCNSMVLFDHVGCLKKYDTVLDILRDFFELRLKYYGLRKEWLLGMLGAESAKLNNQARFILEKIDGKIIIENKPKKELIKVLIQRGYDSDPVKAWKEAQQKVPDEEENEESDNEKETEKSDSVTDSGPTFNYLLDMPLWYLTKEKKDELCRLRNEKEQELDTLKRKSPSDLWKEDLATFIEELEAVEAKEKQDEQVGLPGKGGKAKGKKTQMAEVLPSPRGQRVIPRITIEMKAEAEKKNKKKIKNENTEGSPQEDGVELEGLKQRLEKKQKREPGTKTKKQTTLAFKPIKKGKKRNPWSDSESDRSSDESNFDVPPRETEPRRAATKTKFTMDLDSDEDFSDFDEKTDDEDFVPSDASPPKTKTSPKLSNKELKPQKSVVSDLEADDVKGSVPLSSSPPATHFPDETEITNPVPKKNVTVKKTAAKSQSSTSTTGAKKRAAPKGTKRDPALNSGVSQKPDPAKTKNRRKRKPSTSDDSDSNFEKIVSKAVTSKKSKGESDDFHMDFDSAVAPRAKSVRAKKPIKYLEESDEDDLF
Experiment [3] shares this target. The experiment is described as follows: Inhibition of human recombinant topoisomerase-2alpha assessed as inhibition of relaxation of supercoiled pBR322 plasmid DNA at 20 uM measured after 1 hr by ethidium bromide staining based agarose gel electrophoresis relative to control etoposide.
Experiment [4] concerns the target T1, DNA topoisomerase 1 (Homo sapiens). The experiment is described as follows: Inhibition of human recombinant topoisomerase-1 assessed as inhibition of relaxation of supercoiled pBR322 plasmid DNA at 100 uM measured after 1 hr by ethidium bromide staining based agarose gel electrophoresis relative to control.
The target in experiment [5] is DNA topoisomerase 2-alpha (Homo sapiens) (UniProt P11388). The experiment can be described thus: Inhibition of human recombinant topoisomerase-2alpha assessed as inhibition of relaxation of supercoiled pBR322 plasmid DNA at 20 uM measured after 1 hr by ethidium bromide staining based agarose gel electrophoresis relative to control.
The next experiment concerns HCT-15. The experiment is described as follows: Antiproliferative activity against human HCT15 cells incubated for 72 hrs by CCK8 assay. The class given is functional, cell-based. The following applies: HCT-15, 72 h.
Experiment [6] deals with DNA topoisomerase 2-alpha (Homo sapiens) (UniProt P11388). The experiment is described as follows: Inhibition of human recombinant topoisomerase-2alpha assessed as inhibition of relaxation of supercoiled pBR322 plasmid DNA at 100 uM measured after 1 hr by ethidium bromide staining based agarose gel electrophoresis relative to control etoposide.

As to `Oc1ccc(-c2cc(-c3cccc(O)c3)c3oc4cc(O)ccc4c3n2)cc1`, the IC50 with T47D is 0.19 µM; with HeLa, 2.16 µM; in the experiment on HCT-15 it was 3.73 µM. For the same compound, the inhibition worked out at 38.1% in [1], 66.1% in experiment [2], 66.3% in experiment [4] and 55.1% in [5]. The results for the Ratio in experiment [3] and in [6] were 1.11 and 1.07, respectively.

As to `Oc1ccc2c(c1)oc1c(-c3ccccc3)cc(-c3ccccc3)nc12`, the IC50 with T47D, with HeLa and in the experiment with HCT-15 was greater than 50 µM in each case. The inhibition in experiment [1] turned out to be 0%; in [2], 18.3%; in experiment [4] it was 30.8%.

As for `Oc1ccc2c(c1)oc1c(-c3ccccc3O)cc(-c3ccccc3)nc12`, the half-maximal inhibitory concentration (IC50) with T47D was determined as 0.74 µM; in the experiment with HeLa, 6.93 µM; in the experiment with HCT-15, 5.74 µM. Further, the inhibition is 52.5% in experiment [2], 14.2% in [4] and 19.1% in [5]. In addition, the values for the Ratio in experiment [3] and in experiment [6] were 0.48 and 0.69, respectively.

`Oc1ccc(-c2cc(-c3ccccc3)nc3c2oc2cc(O)ccc23)cc1`: the IC50 in the experiment on T47D, with HeLa and in the experiment with HCT-15 was greater than 50 µM throughout. Also, the figures for the inhibition in experiment [1], in experiment [2] and in [4] were 0%, 0.4% and 30.3%, respectively. Further, the inhibition result in [6] is “inactive”.

Consider `Oc1ccc2c(c1)oc1c(-c3ccccc3)cc(-c3ccccc3O)nc12`, for which the results for the half-maximal inhibitory concentration (IC50) with T47D, in the experiment on HeLa and with HCT-15 were 0.71 µM, 4.11 µM and 1.6 µM, respectively. Further, the results for the inhibition in [2], in [4] and in [5] were 83.1%, 18.2% and 52.6%, respectively. Further, the values for the Ratio in experiment [3] and in experiment [6] were 1.33 and 1.08, respectively.

For `Oc1ccc(-c2cc(-c3cccc(O)c3)nc3c2oc2cc(O)ccc23)cc1`, the IC50 was 5.25 µM in the experiment with T47D, 29.1 µM with HeLa and 23.9 µM in the experiment with HCT-15. Also, the inhibition in [1] is 60.9%; in experiment [2], 58.4%; in experiment [4], 71.7%; in experiment [5] it was 45.1%. For the same compound, the Ratio turned out to be 0.91 in [3] and 0.94 in experiment [6].

As to `Oc1cccc(-c2cc(-c3ccccc3)c3oc4cc(O)ccc4c3n2)c1`, the results for the IC50 in the experiment on T47D, with HeLa and in the experiment on HCT-15 were 2.79 µM, greater than 50 µM and greater than 50 µM, respectively. Also, the inhibition turned out to be 46.3% in experiment [2], 15.9% in [4] and 32.5% in [5]. The Ratio was 0.82 in experiment [3] and 0.6 in [6].

In the case of `Oc1cccc(-c2cc(-c3cccc(O)c3)c3oc4cc(O)ccc4c3n2)c1`, the values for the IC50 in the experiment with T47D, in the experiment with HeLa and in the experiment on HCT-15 were 0.59 µM, 0.86 µM and 1.22 µM, respectively. The inhibition in experiment [2] amounted to 100%; in [4], 22.4%; in experiment [5], 74.1%. The Ratio is 1.49 in experiment [3] and 1.62 in experiment [6].

On to `Oc1ccc(-c2cc(-c3ccccc3O)nc3c2oc2cc(O)ccc23)cc1`, for which the IC50 was determined as 1.97 µM with T47D, 3.62 µM in the experiment with HeLa and 9.34 µM with HCT-15. The inhibition in [1] amounted to 0%; in experiment [2], 100%; in experiment [4], 39.9%; in experiment [5], 70.8%. Further, the Ratio is 1.42 in experiment [3] and 1.62 in experiment [6].

On to `Oc1ccc(-c2cc(-c3ccccc3O)c3oc4cc(O)ccc4c3n2)cc1`, for which the half-maximal inhibitory concentration (IC50) in the experiment on T47D was determined as 0.62 µM; with HeLa, 2.86 µM; in the experiment on HCT-15 it was 1.26 µM. The inhibition worked out at 87.3% in experiment [2], 3.3% in experiment [4] and 29% in experiment [5]. Besides, the results for the Ratio in experiment [3] and in experiment [6] were 0.73 and 1.12, respectively.

In the case of `Oc1ccc(-c2cc(-c3ccc(O)cc3)c3oc4cc(O)ccc4c3n2)cc1`, the IC50 in the experiment with T47D was 0.17 µM; with HeLa, 3.32 µM; with HCT-15 it was 4.21 µM. Also, the inhibition in [1] came out at 18.6%; in [2], 71%; in experiment [4] it was 33.8%; in [5], 65.9%. The Ratio was found to be 1.33 in experiment [3] and 1.15 in [6].

For the compound `Oc1ccc(-c2cc(-c3ccccc3)c3oc4cc(O)ccc4c3n2)cc1`, the IC50 in the experiment with T47D was 5.3 µM; with HeLa, greater than 50 µM; with HCT-15, greater than 50 µM. Further, the inhibition in [1] amounted to 0%; in [2], 78.4%; in experiment [4], 43.9%; in [5], 72.2%. Also, the values for the Ratio in experiment [3] and in [6] were 1.83 and 1.02, respectively.

Regarding `Oc1cccc(-c2cc(-c3ccccc3)nc3c2oc2cc(O)ccc23)c1`, the IC50 in the experiment with T47D amounted to 0.34 µM; with HeLa, 3.27 µM; in the experiment with HCT-15, 4.11 µM. In addition, the inhibition was determined as 98% in experiment [2], 27.4% in experiment [4] and 41.9% in [5]. The Ratio in experiment [3] came to 0.84; in experiment [6], 1.58.

As to `Oc1cccc(-c2cc(-c3ccccc3O)nc3c2oc2cc(O)ccc23)c1`, the IC50 with T47D was determined as 1.26 µM; in the experiment with HeLa it was 3.39 µM; in the experiment with HCT-15, 6.96 µM. Moreover, the inhibition in experiment [2] worked out at 99.1%; in experiment [4], 25.6%; in [5], 76%. Moreover, the Ratio in experiment [3] stood at 1.53; in [6], 1.6.

As to `Oc1cccc(-c2cc(-c3ccccc3O)c3oc4cc(O)ccc4c3n2)c1`, the IC50 stood at 0.64 µM in the experiment with T47D, 3.63 µM in the experiment on HeLa and 2.5 µM with HCT-15. The inhibition was determined as 0% in experiment [1], 63% in experiment [2], 33.9% in experiment [4] and 12% in experiment [5]. In addition, the figures for the Ratio in experiment [3] and in experiment [6] were 0.31 and 0.82, respectively.

For `COc1cccc2c1C(=O)c1c(O)c3c(c(O)c1C2=O)C[C@@](O)(C(=O)CO)C[C@@H]3O[C@H]1C[C@H](N)[C@H](O)[C@H](C)O1` [DOXORUBICIN HYDROCHLORIDE], the IC50 in the experiment on HeLa worked out at 1.5 µM; in the experiment with HCT-15, 0.51 µM.

Turning to `Oc1ccc2c(c1)oc1c(-c3ccccc3O)cc(-c3ccccc3O)nc12`, the IC50 was 1.03 µM in the experiment on T47D, greater than 50 µM in the experiment with HeLa and greater than 50 µM in the experiment on HCT-15. Moreover, the inhibition in [1] was determined as 0%; in experiment [2], 46%; in experiment [4], 30.1%; in [5] it was 38%. Further, the Ratio in [3] is 0.96; in experiment [6], 0.6.

The term IC50 denotes the concentration at which inhibition is half-maximal. A higher IC50 goes with lower potency. By inhibition is commonly meant how much of the control response was suppressed.
